# In ChEMBL document CHEMBL4043130, “Discovery of a tetrahydroisoquinoline-based HDAC inhibitor with improved plasma stability” (Bioorg Med Chem, 2017):
# Calls of active or inactive are those of the source. The calls are words filed in the database; no cut-off is given here.
# Columns and labels:
# [1] = Half life in rat plasma by HPLC analysis; format: ADME, cell-free
# [2] = Inhibition of HDAC in human HeLa nuclear extract preincubated for 5 mins followed by Boc-Lys (acetyl)-AMC addition measured after 10 mins by fluorescence assay
# MDA-MB-231 [3] = assay: Antiproliferative activity against human MDA-MB-231 cells after 48 hrs by MTT assay; format: functional, cell-based; settings: MDA-MB-231, 48 h
# U-937 = assay: Antiproliferative activity against human U937 cells after 48 hrs by MTT assay; format: functional, cell-based; settings: U-937, 48 h
# U-266 = assay: Antiproliferative activity against human U266 cells after 48 hrs by MTT assay; format: functional, cell-based; settings: U-266, 48 h
# MDA-MB-231 [4] = assay: Antitumor activity against human MDA-MB-231 cells xenografted subcutaneously in BALB/c nude mouse assessed as reduction in tumor growth at 90 mg/kg, po; format: functional, organism-based
# MDA-MB-231 [5] = assay: Antitumor activity against human MDA-MB-231 cells xenografted subcutaneously in BALB/c nude mouse assessed as reduction in tumor volume at 90 mg/kg, po; format: functional, organism-based
# [6] = biological target: Histone deacetylase 1/2/3 (Homo sapiens) (UniProt Q13547+O15379+Q92769); assay: Inhibition of HDAC1/2/3 in human MDA-MB-231 cells assessed as increase in hyperacetylation of histone H3 level at 1 uM after 3 hrs by Western blot analysis; format: cell-based
# [7] = biological target: T1, Protein deacetylase HDAC6 (Homo sapiens) (UniProt Q9UBN7); assay: Inhibition of HDAC6 in human MDA-MB-231 cells assessed as increase in acetylated alpha tubulin level at 1 uM after 3 hrs by Western blot analysis; format: cell-based
# T1 sequence (whole entry): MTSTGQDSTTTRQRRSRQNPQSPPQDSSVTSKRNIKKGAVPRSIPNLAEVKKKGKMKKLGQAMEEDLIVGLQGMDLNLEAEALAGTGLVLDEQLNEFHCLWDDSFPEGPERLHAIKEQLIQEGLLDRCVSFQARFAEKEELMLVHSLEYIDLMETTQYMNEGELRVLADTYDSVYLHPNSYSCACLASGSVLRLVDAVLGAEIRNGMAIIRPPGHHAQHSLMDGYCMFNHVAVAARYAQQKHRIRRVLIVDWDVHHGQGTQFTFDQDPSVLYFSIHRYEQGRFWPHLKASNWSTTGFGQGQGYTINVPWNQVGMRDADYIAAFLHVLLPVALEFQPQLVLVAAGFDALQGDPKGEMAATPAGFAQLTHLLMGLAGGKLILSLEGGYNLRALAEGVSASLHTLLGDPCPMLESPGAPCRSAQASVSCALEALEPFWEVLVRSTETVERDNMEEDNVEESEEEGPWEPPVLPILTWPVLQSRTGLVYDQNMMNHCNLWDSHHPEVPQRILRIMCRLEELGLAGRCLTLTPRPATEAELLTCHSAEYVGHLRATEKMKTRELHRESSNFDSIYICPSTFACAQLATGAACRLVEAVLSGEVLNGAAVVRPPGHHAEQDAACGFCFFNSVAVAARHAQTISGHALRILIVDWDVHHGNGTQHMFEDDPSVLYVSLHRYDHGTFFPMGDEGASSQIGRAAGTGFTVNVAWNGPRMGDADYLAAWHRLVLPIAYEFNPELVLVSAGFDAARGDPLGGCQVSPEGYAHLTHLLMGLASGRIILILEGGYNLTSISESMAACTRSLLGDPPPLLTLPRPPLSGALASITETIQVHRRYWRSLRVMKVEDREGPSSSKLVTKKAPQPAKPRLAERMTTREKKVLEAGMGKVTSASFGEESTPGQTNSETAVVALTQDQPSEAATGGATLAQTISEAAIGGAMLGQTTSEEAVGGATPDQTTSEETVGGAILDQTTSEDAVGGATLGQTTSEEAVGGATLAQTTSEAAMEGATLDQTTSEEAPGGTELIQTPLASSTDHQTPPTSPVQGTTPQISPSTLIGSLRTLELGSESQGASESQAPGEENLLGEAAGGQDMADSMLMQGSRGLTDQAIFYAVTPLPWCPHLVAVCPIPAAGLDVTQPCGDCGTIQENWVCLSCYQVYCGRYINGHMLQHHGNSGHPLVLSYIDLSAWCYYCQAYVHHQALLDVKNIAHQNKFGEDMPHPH
half-life [1],IC50 [2],IC50 (MDA-MB-231 [3]),IC50 (U-937),inhibition [6],inhibition [7],Structure (SMILES),IC50 (U-266),TGI (MDA-MB-231 [4]),inhibition (MDA-MB-231 [5])
1.72 h,69.4 nM,2560 nM,560 nM,Active,Active,CC[C@H](C)[C@H](NC(=O)CC(C)(C)C)C(=O)N1Cc2cc(OCC(=O)NO)ccc2C[C@H]1C(=O)Nc1ccc(OC)cc1,690 nM,Active,Active
2.18 h,55 nM,,,,,CC[C@H](C)[C@H](NC(=O)OC(C)(C)C)C(=O)N1Cc2cc(OCC(=O)NO)ccc2C[C@H]1C(=O)Nc1ccc(N(C)C)cc1,,,
1.13 h,377 nM,,,,,CN(C)c1ccc(NC(=O)[C@@H]2Cc3ccc(OCC(=O)NO)cc3CN2C(=O)CNC(=O)CC(C)(C)C)cc1,,,
10.5 h,38.5 nM,2130 nM,550 nM,Active,Active,CC[C@H](C)[C@H](NC(=O)CC(C)(C)C)C(=O)N1Cc2cc(OCC(=O)NO)ccc2C[C@H]1C(=O)Nc1ccc(N(C)C)cc1,780 nM,Active,Active
